# Results taken from US20220160703A1, “TUMOR-SELECTIVE COMBINATION THERAPY” (The Board of Regents of The University of Texas System, priority 2019, published 2022).
# Experiments:
# MC38 tumor = assay: MC38 subcutaneous syngeneic tumor model; format: in vivo, mice
# B16 tumors = assay: B16 (NQO1 null or NQO1 overexpressing) tumor model; format: in vivo, mice
# [1] = tested on: MC38 cells with CRISPR-based NQO1 Knockout; assay: Cell survival of NQO1 knockout MC38 cells; format: cell-based, murine; details: 3 hr exposure, survival 48 hr later
# Procedure: (FIG. 1A) NQO1 positive tumor cell lines MC38, TC-1 and Ag104Ld and NQO1 negative cell lines Panc02 and B16 grown in 48-well plates were treated with β-lap (0-8 μM) for a 3 hr followed by washing and replacing medium. Cell viability was determined by Sulforhodamine B (SRB) Assay 4 days later. […] (FIG. 1C) MC38 cells with CRISPR-based NQO1 Knockout (MC38 NQO1KO #5) planted in 96-well plates were exposed to β-lap for 3 hr and cell survival was assessed 48 hr later. […] (FIG. 1E) MC38 cells were exposed to a lethal dose of β-lap (4 μM) for indicated times, then stained with 7-AAD and Annexin V followed by flow cytometry analysis. […] (FIG. 1H) MC38 and B16 NQO1 #1 cells were exposed to β-lap for a 3 hr. Catalase (1000 U/ml) was added and cell survival was assessed 48 hr later. […] Tumor growth was monitored twice a week.
# FIGS. 17A-I (related to FIGS. 1A-J). […] (FIG. 17A) NQO1 expression in different murine cancer cell lines was determined by western blotting assay. […] Cell viability was determined by Sulforhodamine B (SRB) Assay 48 hr later. […] Cell viability was determined by SRB Assay 48 hr later. […] Catalase (1000 U/ml) was added and cell viability was assessed 48 hr later. […] Tumor growth was monitored twice a week. […] Data are shown as mean±SEM. **P<0.01, ***P<0.001, ****P<0.0001 determined by unpaired student t-test (FIG. 17G) or two-way ANOVA (FIG. 17H and FIG. 17I). […]
# NQO1 = NQO1 (Homo sapiens, UniProt P15559); details: in ~2 min; cited from earlier work
# Chain of NQO1 (P15559 whole entry, species assumed): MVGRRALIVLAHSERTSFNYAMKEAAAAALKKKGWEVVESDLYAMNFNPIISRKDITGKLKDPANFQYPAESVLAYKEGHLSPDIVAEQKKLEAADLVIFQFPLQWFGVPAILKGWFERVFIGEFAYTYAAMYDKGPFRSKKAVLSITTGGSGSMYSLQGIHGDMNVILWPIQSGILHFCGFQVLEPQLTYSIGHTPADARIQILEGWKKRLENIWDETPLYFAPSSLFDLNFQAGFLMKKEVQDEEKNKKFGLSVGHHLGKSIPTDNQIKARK
structure (smiles),measurement,setting,value
"CC1(C)CCC2=C(O1)c1ccccc1C(=O)C2=O [β-lap, β-lapachone]",tumor growth with irradiation,"MC38 tumor; 10 Gy + 0.1 mg β-lap, 3 i.t. injections, tumors 100 mm^3",significant inhibition of tumor growth
same,response with irradiation,"MC38 tumor; 10 Gy + β-lap 30 mg/kg i.p. every other day, 6 injections, tumors 50 mm3",significant synergistic responses
same,therapeutic effect in NQO1 knockout MC38 mouse models,"MC38 tumor; NQO1 KO MC38, 0.3 mg i.t. four times",abolished
same,mice cured,"MC38 tumor; WT C57BL/6, 4 doses of β-lap (0.3 mg, i.t.)",50%
same,mice with complete tumor rejection,"MC38 tumor; local β-lap 15 mg/kg, 7/15 mice",46.7%
same,TGI,"MC38 tumor; small tumors (about 50 mm^3), β-lap 0.3 mg i.t. four times",93.0%
same,antitumor efficacy with anti-IFNAR blocking antibody,"MC38 tumor; β-lap 0.1 mg i.t., anti-IFNAR Ab 150 μg",greatly impaired the antitumor efficacy
same,effect with HMGB1 blockade,MC38 tumor; β-lap 0.3 mg i.t. + anti-HMGB1 200 μg i.p.,diminished the effect
same,therapeutic effect with neutrophil depletion,MC38 tumor; β-lap 0.3 mg i.t. + anti-Ly-6G 200 μg,greatly impaired the therapeutic effect
same,tumor regression in IFNAR knockout mice,"MC38 tumor; β-lap 0.3 mg i.t. day 9, 12, 15",totally abrogated
same,therapeutic effect in Ifnar−/− mice,MC38 tumor; β-lap 0.3 mg i.t. four times,abrogated
same,antitumor effect alone or with CD4+ T cell depletion,MC38 tumor; β-lap 0.3 mg i.t. ± anti-CD4 200 μg,controlled MC38 tumor growth
same,"tumor growth, systemic treatment","MC38 tumor; β-lap 30 mg/kg i.p. six times, anti-PD-L1, tumors about 50-100 mm^3",moderate inhibition of tumor growth
same,tumor response,"B16 tumors; NQO1null parental B16, β-lap 0.3 mg i.t. four times",didn't response
same,tumor response,"B16 tumors; NQO1 overexpressing B16 clone #1 and #4, β-lap 0.3 mg i.t. four times",dramatic tumor suppression
same,TGI,"B16 tumors; NQO1 overexpressing B16 tumors (about 100 mm^3), β-lap 0.3 mg i.t. four times, anti-PD-L1 150 μg i.p. three times",68.67%
same,response to β-lap (cell survival),[1],resistance to β-lap treatment
same,NAD(P)H consumed by one mole of drug,NQO1,~60 mol
same,superoxide generated by one mole of drug,NQO1,~120 mol
